In patent US9782434B2, “Methods of treating or preventing inflammation and hypersensitivity with oxidative reductive potential water solution” (Oculus Innovative Sciences, Inc., priority 2006, dated 2017):
Where two headings read alike, the source gives them in different places. One block for each compound: values may come before it. Bridge positions count the residues as written; N and C are the ends. Square brackets hold non-standard residues; d marks the D form. Peptide text beside a SMILES is read from it. * marks the point of attachment. Ileψ(thiazoline)Cys = CC[C@H](C)[C@H](N)C1=N[C@H](C(=O)*)CS1; dOrn = NCCC[C@@H](N)C(=O)O

Legend:
[1] = tested on: human diploid fibroblasts (HDFs); assay: Cell viability, apoptosis and necrosis by flow cytometry; type: cell-based; details: 880 mM
Protocol: HP is known to be toxic to eukaryotic cells, increasing apoptosis and necrosis and reducing cellular viability. […] HDF cultures were obtained from three different foreskins, which were pooled and cryopreserved together for the purpose of this study. Only diploid cells were used for all experiments. […] Simultaneous analyses of these parameters were performed in the same cell populations by flow cytometry using: […] B) Annexin V-FITC; and C) Propidium iodide. FIG. 4A-4C disclose percentage values expressed as mean±SD (n=3).

[2] = tested on: human diploid fibroblasts (HDFs); details: 30 min, 500 μM
[3] = tested on: B. atropheus spores, Pseudomonas aeruginosa, and Staphylococcus aureus; assay: Bacterial suspension assay, test organisms overall; type: cell-based; details: 33 Units/ml; over the time periods tested
Protocol: Dermacyn is a ready to use product, therefore performing dilutions during testing was not required.
A purchased spore suspension of B. atropheus at 2.5×10^7/ml was used for testing. In addition fresh suspensions of Pseudomonas aeruginosa, and Staphylococcus aureus were prepared and measured using a spectrophotometer to ensure the titer was acceptable
Nine microliters of test substance was added to 100 ul of microbe suspension. The test mixture was held at 20° C. for the contact times of 20 seconds, 5 minutes, and 20 minutes. […] (entire mixture) was added to 9.0 ml of neutralizer for 20 minutes (this is the original neutralization tube or ONT) 1.0 ml of the neutralized test mixture was plated on Tryptic Soy Agar in duplicate for the 5 minute and 20 minute contact times. Additional dilutions and spread plates were used for the 20 second time point, to achieve countable plates.
All plates were incubated at 30° C.-35° C. for a total of 3 days and were evaluated after each day of incubation.

[4] = tested on: murine polychromatic erythrocytes

increase in number of 8-OHdG adducts relative to control-treated or ORP water solution-treated cells [2]: about 25 fold
GAPDH RT-PCR product (human cell cultures): little if any GAPDH RT-PCR product
RNA degradation, denaturing gel electrophoresis (human cell cultures): significant RNA degradation
SMILES: OO [HP, hydrogen peroxide]
Cell viability (7AAD) ([1]; 5 min): 55%
necrosis, cells incorporating propidium iodide ([1]; 5 min): 20%
Cell viability (7AAD) ([1]; 30 min): 5%
necrosis, cells incorporating propidium iodide ([1]; 30 min): 75%

SMILES: CC[C@H](C)[C@H](N)C1=N[C@H](C(=O)N[C@@H](CC(C)C)C(=O)N[C@H](CCC(=O)O)C(=O)N[C@H](C(=O)N[C@H]2CCCCNC(=O)[C@H](CC(N)=O)NC(=O)[C@@H](CC(=O)O)NC(=O)[C@H](Cc3cnc[nH]3)NC(=O)[C@@H](Cc3ccccc3)NC(=O)[C@H]([C@@H](C)CC)NC(=O)[C@@H](CCCN)NC2=O)[C@@H](C)CC)CS1 [Bacitracin] ({Ileψ(thiazoline)Cys}-L[dE]IK[dOrn]I[dF]H[dD]N; lactam 4-C)
lowering of bacterial or spore populations [3]: no evidence of lowering the bacterial or spore populations

SMILES: O=P1(N(CCCl)CCCl)NCCCO1 (centres unmarked) [cyclophosphamide]
PCE/NCE ratio ([4]; females, negative controls 1.02): 0.73
number of polychromatic erythrocytes bearing micronuclei ([4]; males, negative controls 0.6): 11.0
PCE/NCE ratio ([4]; males, negative controls 0.90): 0.77
